Patent publication US4472386A, “5-Fluoro-(β-uridine or 2'-deoxy-β-uridine) derivatives, a process for producing the same and a carcinostatic agent containing the same” (Toyama Chemical Co., Ltd., priority 1978, dated 1984)

How the values were obtained:
[1] = system: Ehrlich ascites carcinoma; assay: Carcinostatic test, oral, ED values (Table 5); format: in vivo, ddY mice; details: Mus musculus, 336 h, oral once daily for 10 days, least square method
Procedure: Ehrlich ascites carcinoma was subcutaneously inoculated into the right inguinal region of ddY mice (5 weeks old, male, 8 mice per group) with 8×10^6 cells per mouse. Twenty four hours after the inoculation,5, 10, 20 or 40 mg/kg of a test drug suspended or dissolved in polyethylene glycol was administered orally to the test group successively once daily for 10 days, while the same quantity as above of 10% polyethylene glycol was administered orally to the control group. Fourteen days after the inoculation, the tumor was excised and weighed, from which the average tumor weight ratio between the test group and the control group (T/C) was calculated. ED value was determined by the least square method.

[2] = system: nucleotide-phosphorylase; details: G. D. Birnie (1963); cited from earlier work
[3] = Acute toxicity test (b), oral LD50 (Table 4); details: mouse, in vivo; oral, 3 weeks, Van der Waerden method
Procedure: (b) The test compound was suspended in 0.25% CMC solution and administered orally to SLC-ddY mice (5 weeks old, male, 6 mice per group). The number of dead mice was counted over the subsequent 3 weeks. LD50 value was calculated according to the method of Van der Waerden.

[4] = C. Heidelberger et al. (1958); cited from earlier work
[5] = system: Ehrlich ascites carcinoma; assay: Inhibition of Ehrlich solid tumor in mice, intraperitoneal administration (Table 1); format: in vivo, ddY mice
Procedure: (§1) 1. Experiment on the inhibition of Ehrlich solid tumor
Ehrlich ascites carcinoma was subcutaneously inoculated into the right inguinal region of ddY mice (5 weeks old, male, 8 mice per group) with 3×10^6 cells per mouse.
24 Hours after the inoculation, a test drug suspended or dissolved in 5% HCO 60 (a product manufactured by Nikkol) was administered intraperitoneally successively once daily for 7 days. To the control group, the same quantity as above of 5% HCO 60 was intraperitoneally administered in the same manner. Fourteen days after the inoculation, the tumor was excised and weighed, from which the average tumor weight ratio between the test group and the control group (T/C) was determined.

[6] = system: Ehrlich ascites carcinoma; assay: Inhibition of Ehrlich solid tumor in mice, oral administration starting six days after inoculation (Table 2); format: in vivo, ddY mice
Procedure: as §1
Ehrlich ascites carcinoma was subcutaneously inoculated into the inguinal region of ddY mice (5 weeks old, male, 8 mice per group) with 3×10^6 cells per mouse. Six days after the inoculation, a test drug dissolved or suspended in 0.5% CMC solution was administered orally to the test group successively once daily for 10 days, while the same quantity as above of 0.5% CMC solution was orally administered to the control group. Twenty one days after the inoculation, the tumor was excised and weighed, from which the average tumor weight ratio between the test group and the control group (T/C) was determined.

[7] = cited from earlier work
[8] = system: Sarcoma-180 ascites tumor; assay: Inhibition of Sarcoma-180 ascites tumor in mice, intravenous administration (Table 3); format: in vivo, ddY mice; details: 10 mg/kg i.v. once daily for 7 days
Procedure: 2. Experiment on the inhibition of Sarcoma-180 ascites tumor
Sarcoma-180 ascites tumor was subcutaneously inoculated into the right inguinal region of ddY mice (5 weeks old, male, 8 mice per group) with 3×10^6 cells per mouse. Twenty four hours after the inoculation,a test drug dissolved in 10% polyethylene glycol was administered intravenously to the test group successively once daily for 7 days, while the same quantity as above of 10% polyethylene glycol was intravenously administered to the control group. Ten days after the inoculation, the tumor was excised and weighed, from which the average tumor weight ratio between the test group and the control group (T/C) was determined.

[9] = C. Heidelberger et al. (1958); cited from earlier work; remark: listed apart in the source
[10] = 40 mg/kg i.p. once daily for 7 days
[11] = 60 mg/kg orally once daily for 10 days

Q: What does the source list for O=c1[nH]c(=O)n([C@H]2C[C@H](O)[C@@H](CO)O2)cc1F [FUDR, 5-fluoro-2'-deoxy-β-uridine, reference compound]?
A: ED30 ([1]; read-out: ED30): 19 mg/kg; ED40 ([1]; read-out: ED40): 24 mg/kg; decomposition by nucleotide-phosphorylase to yield 5-fluorouracil [2]: readily decomposed by nucleotide-phosphorylase; LD50 at 504 h [3]: 1330 mg/kg; toxicity [4]: low toxicity; Body weight change [5, 10]: +6.5 g; No. of surviving mice/No. of total mice used [5, 10]: 8/8; response vs control in vivo at 40 mg/kg ([5]; Mus musculus, Ehrlich, ip, 336 h, read-out: T/C (average tumor weight ratio between test group and control group)): 47.1%; Body weight change [6, 11]: -2.7 g; No. of surviving mice/No. of total mice used [6, 11]: 8/8; T/C (average tumor weight ratio between test group and control group) ([6]; 60 mg/kg orally once daily for 10 days from day 6, Ehrlich, day 21): 48.6%; persistency in vivo [7]: lacks persistency; excretion ([7]; in vivo): excreted rapidly; Body weight change [8]: +3.9 g; No. of surviving mice/No. of total mice used [8]: 8/8; T/C (average tumor weight ratio between test group and control group) ([8]; Sarcoma-180, day 10): 56.3%; carcinostatic activity in vitro [9]: intense carcinostatic activity in vitro
